Assay results: ChEMBL document CHEMBL1143927, “Investigation of novel 7,8-disubstituted-5,10-dihydro-dibenzo[b,e][1,4]diazepin-11-ones as potent Chk1 inhibitors” (Bioorg Med Chem Lett, 2008)

How the values were obtained:
[1] = tested on: HeLa; test: Antiproliferative activity against human HeLa cells after 48 hrs by MTS assay; type: functional, cell-based
[2] = target: T1, Serine/threonine-protein kinase Chk1 (Homo sapiens, UniProt O14757); test: Inhibition of recombinant Chk1
T1 sequence (O14757 whole entry): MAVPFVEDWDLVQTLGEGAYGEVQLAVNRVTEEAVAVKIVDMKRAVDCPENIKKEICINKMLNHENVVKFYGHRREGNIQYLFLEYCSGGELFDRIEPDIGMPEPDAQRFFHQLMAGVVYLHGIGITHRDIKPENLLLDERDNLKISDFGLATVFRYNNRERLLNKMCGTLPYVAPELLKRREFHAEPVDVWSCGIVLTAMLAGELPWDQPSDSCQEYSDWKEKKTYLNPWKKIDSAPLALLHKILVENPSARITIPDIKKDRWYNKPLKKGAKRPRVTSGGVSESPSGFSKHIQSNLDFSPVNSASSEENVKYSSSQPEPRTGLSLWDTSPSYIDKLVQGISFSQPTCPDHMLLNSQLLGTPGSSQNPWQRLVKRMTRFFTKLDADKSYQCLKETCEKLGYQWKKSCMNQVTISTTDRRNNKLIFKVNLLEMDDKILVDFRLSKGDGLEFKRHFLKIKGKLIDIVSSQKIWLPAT

[3] = target: T1, Serine/threonine-protein kinase Chk1; test: Inhibition of human Chk1 in H1299 cells assessed as blockade of Cdc25A degradation; type: cell-based
[4] = Cell cycle arrest in human H1299 cells assessed as accumulation at G2/M phase by FACS; type: functional, cell-based; details: NCI-H1299

Compound	EC50 [1] [µM]	IC50 [2] [µM]	EC50 [3] [µM]	EC50 [4] [µM]
COc1cc(-c2ccc3c(c2)Nc2ccccc2NC3=O)ccc1[N+](=O)[O-]	47.7	–	–	–
COC(=O)c1cc2c(cc1OC)Nc1cc(-c3ccc([N+](=O)[O-])c(OC)c3)ccc1C(=O)N2	> 59	0.0112	> 10	> 10
COc1cc2c(cc1OCC1CCCCO1)Nc1cc(-c3ccc([N+](=O)[O-])c(OC)c3)ccc1C(=O)N2 (stereo not drawn)	2	0.0048	0.2	2.4
COCCOCCOc1cc2c(cc1OC)NC(=O)c1ccc(-c3ccc([N+](=O)[O-])c(OC)c3)cc1N2	52	0.0031	3.1	> 10
COc1cc2c(cc1OCCN1CCOCC1)Nc1cc(-c3ccc([N+](=O)[O-])c(OC)c3)ccc1C(=O)N2	2	0.0081	0.2	2.4
COc1cc2c(cc1OCc1ccccc1C(F)(F)F)Nc1cc(-c3ccc([N+](=O)[O-])c(OC)c3)ccc1C(=O)N2	> 59	1.05	–	> 10
COc1cc2c(cc1OC)Nc1cc(-c3ccc([N+](=O)[O-])c(OC)c3)ccc1C(=O)N2	> 59	0.0006	0.28	> 10
COc1cc2c(cc1OCc1csc(C)n1)Nc1cc(-c3ccc([N+](=O)[O-])c(OC)c3)ccc1C(=O)N2	> 59	0.004	> 10	> 10
COc1cc2c(cc1CCc1ccncc1)Nc1cc(-c3ccc([N+](=O)[O-])c(OC)c3)ccc1C(=O)N2	9.6	0.0162	2.1	> 10
COc1cc2c(cc1OCCCCO)Nc1cc(-c3ccc([N+](=O)[O-])c(OC)c3)ccc1C(=O)N2	> 59	0.0007	2	> 10
COc1cc2c(cc1C(=O)N(C)C)NC(=O)c1ccc(-c3ccc([N+](=O)[O-])c(OC)c3)cc1N2	45	0.0155	3.5	> 10
COc1cc2c(cc1OCc1ccncc1)Nc1cc(-c3ccc([N+](=O)[O-])c(OC)c3)ccc1C(=O)N2	> 59	0.0068	0.05	> 10
COc1cc2c(cc1OCCCN)Nc1cc(-c3ccc([N+](=O)[O-])c(OC)c3)ccc1C(=O)N2	17.3	0.00098	2.6	> 10
COc1cc2c(cc1OCCO)Nc1cc(-c3ccc([N+](=O)[O-])c(OC)c3)ccc1C(=O)N2	> 59	0.00058	3.1	> 10

The remaining lines, values ahead:

EC50 [1] [µM]	IC50 [2] [µM]	EC50 [3] [µM]	EC50 [4] [µM]	Compound
4.5	0.009	0.35	> 10	CCc1cc2c(cc1OC)Nc1cc(-c3ccc([N+](=O)[O-])c(OC)c3)ccc1C(=O)N2
> 59	0.0035	0.9	> 10	COc1cc2c(cc1CCO)Nc1cc(-c3ccc([N+](=O)[O-])c(OC)c3)ccc1C(=O)N2
> 59	0.0009	0.07	> 10	COc1cc2c(cc1O)Nc1cc(-c3ccc([N+](=O)[O-])c(OC)c3)ccc1C(=O)N2
> 59	0.0079	0.05	> 10	COc1cc2c(cc1CCC(=O)N(C)C)Nc1cc(-c3ccc([N+](=O)[O-])c(OC)c3)ccc1C(=O)N2
> 59	0.0034	0.04	1.8	COc1cc2c(cc1CC(C)(C)O)Nc1cc(-c3ccc([N+](=O)[O-])c(OC)c3)ccc1C(=O)N2
> 59	0.004	0.6	> 10	COc1cc2c(cc1CCC(C)(C)O)Nc1cc(-c3ccc([N+](=O)[O-])c(OC)c3)ccc1C(=O)N2
> 59	0.022	> 10	> 10	COC(=O)CCc1cc2c(cc1OC)NC(=O)c1ccc(-c3ccc([N+](=O)[O-])c(OC)c3)cc1N2
22	0.0019	0.22	4.3	COc1cc2c(cc1CCCO)NC(=O)c1ccc(-c3ccc([N+](=O)[O-])c(OC)c3)cc1N2
> 59	0.0026	1.5	> 10	COc1cc2c(cc1CCCO)Nc1cc(-c3ccc([N+](=O)[O-])c(OC)c3)ccc1C(=O)N2
